In article doi:10.64898/2025.12.04.692444v1, “Calcium Dependent Protein Kinase 3 is not essential for the asexual replication of Plasmodium falciparum” (biorxiv, 2025):

How the values were obtained:
[1] = target: T1, PfCDPK3 (full-length recombinant CDPK3) (Plasmodium falciparum, UniProt Q9NJU9); experiment: ADP-Glo luminescence kinase assay; format: biochemical; details: MBP as exogenous substrate; 100 µM ATP; 5 mM CaCl2; 20 mM MgCl2; 40 mM Tris-Cl pH 7.5; 30 °C, 1 h
T1 construct: some truncated fragments
T1 sequence (Q9NJU9 1-562): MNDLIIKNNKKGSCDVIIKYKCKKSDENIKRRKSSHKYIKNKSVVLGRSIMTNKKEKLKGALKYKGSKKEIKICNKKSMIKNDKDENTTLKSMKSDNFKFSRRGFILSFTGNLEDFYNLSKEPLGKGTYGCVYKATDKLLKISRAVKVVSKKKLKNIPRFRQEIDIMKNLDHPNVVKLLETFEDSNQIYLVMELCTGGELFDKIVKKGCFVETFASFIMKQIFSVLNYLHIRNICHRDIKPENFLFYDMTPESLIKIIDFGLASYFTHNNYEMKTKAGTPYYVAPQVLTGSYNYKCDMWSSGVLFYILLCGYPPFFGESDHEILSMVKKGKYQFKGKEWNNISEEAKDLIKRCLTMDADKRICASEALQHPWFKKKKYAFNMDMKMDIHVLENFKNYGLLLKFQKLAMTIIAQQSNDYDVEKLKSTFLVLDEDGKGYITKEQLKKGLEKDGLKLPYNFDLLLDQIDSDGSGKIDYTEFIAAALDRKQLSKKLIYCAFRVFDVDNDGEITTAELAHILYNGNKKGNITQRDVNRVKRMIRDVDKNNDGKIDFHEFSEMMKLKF

[2] = target: T1, PfCDPK3 (full-length recombinant CDPK3); experiment: semi-synthetic epitope tagging: thiophosphorylation, PNBM alkylation, anti-thiophosphate ester Western blot; format: biochemical; details: GST as exogenous substrate; 100 µM ATPγS; 5 mM CaCl2; 50 mM MgCl2; 50 mM Tris; 30 °C, 2 h

SMILES | ADP-Glo luminescence kinase assay [1] | semi-synthetic epitope tagging: thiophosphorylation, PNBM alkylation, anti-thiop [2]
Nc1ncnc2c1ncn2[C@@H]1O[C@H](COP(=O)(O)OP(=O)(O)OP(=O)(O)O)[C@@H](O)[C@H]1O [ATP] | conversion of ATP to ADP by the recombinant CDPK3, was higher in the presence of calcium | 
Nc1ncnc2c1ncn2[C@@H]1O[C@H](COP(=O)(O)OP(=O)(O)OP(O)(O)=S)[C@@H](O)[C@H]1O [ATPγS] |  | ATPγS, a ATP analog, containing terminal thiophosphate group was used as the source
